For 14 molecules, IC50 results are on record in patent publication US8912184B1, “Therapeutic and diagnostic methods” (Alzheimer's Institute of America, Inc., priority 2010, dated 2014).

The test system of this assay is HCT116 cells. Put plainly: Nicotinic Acid Rescue Cytotoxicity Assay, first method: cytotoxicity to HCT116 cells in presence and absence of 10 μM nicotinic acid. The assay is classed as cell-based. The following applies: Homo sapiens, HCT-116, 72 h. The procedure:
Additionally, Nicotinic Acid (NA) rescue of cytotoxicity of Nampt inhibitors was assessed by two distinct methods. In the first method, Nampt1 inhibitor cytotoxicity was evaluated in the presence and absence of exogenous nicotinic acid (NA) at a fixed concentration. […] Twenty four hours after cells were plated, the media was removed and replaced with media containing 10 μM nicotinic acid. Compounds were then immediately added. Cell viability was then assessed at 72 h.
Using the first of the two assays described above, the 90 compounds shown in Table 5, below, were tested for cytotoxicity towards Naprt1-proficient HCT116 cells, and for the ability of NA to block the observed cytotoxicity (or “rescue” the cells from the cytotoxic activity of the tested compound). The compounds listed are referred to by a unique rescue analysis example number (i.e., R1, R2 . . . R90) that is used as a reference number in Table 4, in which the results of the cytotoxicity and rescue assays are presented.

Setting [1] is: absence of nicotinic acid, read-out: HCT116 72 h cytotoxicity.
[2] abbreviates: presence of 10 μM nicotinic acid, read-out: HCT116 72 h cytotoxicity with 10 μM Nicotinic Acid.

Where two headings read alike, the source gives them in different places.

Take `O=C(NCc1cccnc1)Nc1ccc(COc2ccccc2-c2ccccc2)cc1` [Example R64, 1-{4-[(Biphenyl-2-yloxy)methyl]phenyl}-3-(pyridin-3-ylmethyl)urea]: the IC50 is, setting by setting: under setting [1], 0.0002 µM; under setting [2], above 10 µM.
Taken in the same sequence, the figures for `O=C(NCc1cccnc1)c1ccc(NCc2ccccc2-c2ccccc2)cc1` [Example R27, 4-[(Biphenyl-2-ylmethyl)amino]-N-(pyridin-3-ylmethyl)benzamide] were 0.0871 µM and 37 µM.
Taken in the same sequence, the figures for `Cc1ccccc1NCC(=O)Nc1ccc(C(=O)NCc2cccnc2)cc1` [Example R20, 4-{[N-(2-Methylphenyl)glycyl]amino}-N-(pyridin-3-ylmethyl)benzamide] were 0.106 µM and above 50 µM.
Taken in the same sequence, the figures for `O=C(NCc1cccnc1)Nc1ccc(NS(=O)(=O)c2cc(C(F)(F)F)ccc2C(F)(F)F)cc1` [Example R67] were 0.0003 µM and above 1 µM.
In the case of `O=C(NCc1cccnc1)Nc1ccc(NS(=O)(=O)c2cc(C(F)(F)F)ccc2Br)cc1` [Example R57, 2-Bromo-N-(4-{[(pyridin-3-ylmethyl)carbamoyl]amino}phenyl)-5-(trifluoromethyl)benzenesulfonamide], the IC50 is 0.0005 µM under setting [1] and above 10 µM under setting [2].
Taken in the same sequence, the figures for `O=C(Nc1ccc(C(=O)NCc2cccnc2)cc1)Nc1ccccc1-c1ccccc1` [Example R11, 4-[(Biphenyl-2-ylcarbamoyl)amino]-N-(pyridin-3-ylmethyl)benzamide] were 0.424 µM and above 50 µM.
For `CCn1cc(-c2ccccc2OCc2ccc(NC(=O)NCc3cccnc3)cc2)cn1` [Example R84, 1-(4-{[2-(1-Ethyl-1H-pyrazol-4-yl)phenoxy]methyl}phenyl)-3-(pyridin-3-ylmethyl)urea] the same measures were 0.0108 µM and above 5 µM.
For `O=C(NCc1cccnc1)Nc1ccc(NS(=O)(=O)c2cc(C(F)(F)F)ccc2F)cc1` [Example R72, 2-fluoro-N-(4-{[(pyridin-3-ylmethyl)carbamoyl]amino}phenyl)-5-(trifluoromethyl)benzenesulfonamide], the IC50 was 0.015 µM under setting [1] and above 5 µM under setting [2].
Taken in the same sequence, the figures for `O=C(NCc1cccnc1)Nc1ccc(NS(=O)(=O)c2ccccc2-c2ccccc2)cc1` [Example R49, N-(4-{[(Pyridin-3-ylmethyl)carbamoyl]amino}phenyl)biphenyl-2-sulfonamide] were 0.0049 µM and above 10 µM.
For `O=C(NCc1cccnc1)Nc1ccc(C(=O)Nc2ccccc2-c2ccccc2)cc1` [Example R58, N-(biphenyl-2-yl)-4-{[(pyridin-3-ylmethyl)carbamoyl]amino}benzamide] the same measures were 0.0016 µM and above 10 µM.
Take `O=C(NCc1cccnc1)Nc1ccc(COc2ccccc2-c2ccsc2)cc1` [Example R80, 1-(Pyridin-3-ylmethyl)-3-(4-{[2-(thiophen-3-yl)phenoxy]methyl}phenyl)urea]: the IC50 is, setting by setting: under setting [1], 0.0009 µM; under setting [2], above 5 µM.
Taken in the same sequence, the figures for `O=C(NCc1cccnc1)Nc1ccc(COc2ccccc2-c2cccnc2)cc1` [Example R83, 1-(Pyridin-3-ylmethyl)-3-(4-{[2-(pyridin-3-yl)phenoxy]methyl}phenyl)urea] were 0.0015 µM and above 5 µM.
For `O=C(NCc1cccnc1)Nc1ccc(NS(=O)(=O)c2ccc(F)cc2-c2ccccc2)cc1` [Example R68, 5-fluoro-N-(4-{[(pyridin-3-ylmethyl)carbamoyl]amino}phenyl)biphenyl-2-sulfonamide] the same measures were 0.0021 µM and above 5 µM.
For `O=C(NCCc1cccnc1)c1ccc(NCc2ccccc2Br)cc1` [Example R34, 4-[(2-Bromobenzyl)amino]-N-[2-(pyridin-3-yl)ethyl]benzamide] the same measures were 1.16 µM and above 50 µM.
